Source: US12533377B2 (OXYMO TECHNOLOGIES INC., priority 2016, dated 2026)
Read-outs that look alike come from different tables or passages of the source. Marks after values point to notes of the source that are not given here.

What was measured:
[1] = tested on: chorioallantoic membrane of a fertilized hen egg; test: Ocular irritation test HET-CAM
Experimental: The ocular irritation test used was the substitution test HET-CAM (Hen's Egg Test—Chorioallantoic Membrane), published in the Official Journal dated 26 Dec. 1996. It is recommended by ICCVAM.
At 0.5, 2 and 5 mins post-contact, the three following criteria are observed and scored: hemorrhage, coagulation and hyperemia.

HSV-1 [2] = test: Model 1: Mixture 1 on cells infected with HSV-1, qPCR of viral genome in BHK-21; assay type: cell-based, Herpes simplex 1
Text: (§1) Symp. Quant. […] Model 1:

HSV-1 [3] = test: Model 4: Mixture 1 on HSV-1 before infection, qPCR of viral genome in BHK-21; assay type: cell-based, Herpes simplex 1
Text: as §1

BHK-21 line [4] = test: Model 4: cytotoxicity on the BHK-21 line, qPCR of 18S gene; assay type: cell-based; conditions: ACV 10^3 mg/L, 8 h post-contact of 2 mins
Text: as §1

BHK-21 line [5] = test: Model 2: cytotoxicity on the BHK-21 line, qPCR of 18S gene; assay type: cell-based; conditions: ACV 1 mg/L, 8 h post-contact of 2 mins
Text: as §1

HSV-1 [6] = test: Model 3: Mixture 1 on cells not yet infected and on free HSV-1, qPCR of viral genome in BHK-21; assay type: cell-based, Herpes simplex 1
Text: as §1

HSV-1 [7] = test: Model 2: Mixture 1 on cells not yet infected with HSV-1, qPCR of viral genome in BHK-21; assay type: cell-based, Herpes simplex 1
Text: as §1

BHK-21 line [8] = test: Model 3: cytotoxicity on the BHK-21 line, qPCR of 18S gene; assay type: cell-based; conditions: ACV 1 mg/L, 8 h post-contact of 2 mins
Text: as §1

BHK-21 line [9] = test: Model 1: cytotoxicity on the BHK-21 line, qPCR of 18S gene; assay type: cell-based; conditions: ACV 1 mg/L, 8 h post-contact of 2 mins
Text: as §1

[10] = tested on: immature erythrocytes (reticulocytes)
Experimental: The morbidity, the mortality, the weight of the animals and the clinical parameters (temperature, skin, hair, eyes, mucous membranes, secretions and excretions, respiratory and neurological function, gait and posture) were noted. 36 h to 48 h after the second treatment, the blood of the animals was collected and analyzed in flow cytometry (toxicity control: reduction of the proportion of immature erythrocytes (CD-71-positive). The proportion of micro-nucleated immature erythrocytes (reticulocytes) was evaluated on 4,000 observations per blood sample. Each rat population (n=10) for each tested substance represents 40,000 observations (Table 5).

[11] = control Line + (PBS + HSV), ACV 1 mg/L, 8 h post-contact of 2 mins
[12] = 100 mg/kg intraperitoneal, female
[13] = 100 mg/kg intraperitoneal, male
[14] = 150 mg/kg intraperitoneal, female
[15] = 150 mg/kg intraperitoneal, male

Structure (SMILES): CCCCCCCCCCCCOS(=O)(=O)[O-].[Na+] [1% SDS, sodium dodecyl sulfate]
- IS of the positive substances of reference [1]: 10±2

Structure (SMILES): Nc1nc2c(ncn2COCCO)c(=O)[nH]1 [ACV, acyclovir]
- Reduction of the HSV-1 replication at t 8 h (HSV-1 [2]; contact 2 min, ACV 10^3 μg/L): −12%
- HSV (%), replication of HSV-1 by qPCR (HSV-1 [2]; [11]): 76 (1) %
- Reduction of the HSV-1 replication at t 8 h (HSV-1 [3]; contact 2 min, [ACV]: 1 g/L): −52^# %
- HSV (%), replication of HSV-1 by qPCR (HSV-1 [3]; control Line + (PBS + HSV), ACV 10^3 mg/L, 8 h post-contact of 2 mins): 54%
- 18S (%), multiplication of the BHK-21 line by qPCR (BHK-21 line [4]; control Line + (PBS + HSV)): 111%
- 18S (%), multiplication of the BHK-21 line by qPCR (BHK-21 line [4]; control Line + (PBS − HSV)): 97%
- 18S (%), multiplication of the BHK-21 line by qPCR (BHK-21 line [5]; control Line + (PBS + HSV)): 62 (1) %
- 18S (%), multiplication of the BHK-21 line by qPCR (BHK-21 line [5]; control Line + (PBS − HSV)): 57 (1) %
- Reduction of the HSV-1 replication at t 8 h (HSV-1 [6]; contact 2 min, ACV 10^3 μg/L): −6%
- HSV (%), replication of HSV-1 by qPCR (HSV-1 [6]; [11]): 86 (1) %
- Reduction of the HSV-1 replication at t 8 h (HSV-1 [7]; contact 2 min, ACV 10^3 μg/L): −1%
- HSV (%), replication of HSV-1 by qPCR (HSV-1 [7]; [11]): 61 (1) %
- 18S (%), multiplication of the BHK-21 line by qPCR (BHK-21 line [8]; control Line + (PBS + HSV)): 92 (1) %
- 18S (%), multiplication of the BHK-21 line by qPCR (BHK-21 line [8]; control Line + (PBS − HSV)): 111 (1) %
- 18S (%), multiplication of the BHK-21 line by qPCR (BHK-21 line [9]; control Line + (PBS + HSV)): 118 (1) %
- 18S (%), multiplication of the BHK-21 line by qPCR (BHK-21 line [9]; control Line + (PBS − HSV)): 108 (1) %

Structure (SMILES): O=P1(N(CCCl)CCCl)NCCCO1 (stereo not shown) [Cyclophosphamide, cyclophosphamide]
- Micro-nucleated reticulocytes (%) ([10]; 5 mg/kg intravenous, female): 0.40 ± 0.13%
- Reticulocytes (%) ([10]; 5 mg/kg intravenous, female): 2.41 ± 0.54%
- Micro-nucleated reticulocytes (%) ([10]; 5 mg/kg intravenous, male): 0.56 ± 0.17%
- Reticulocytes (%) ([10]; 5 mg/kg intravenous, male): 3.99 ± 0.49%
- Micro-nucleated reticulocytes (%) ([10]; 10 mg/kg intravenous, female): 1.02 ± 0.26 %
- Reticulocytes (%) ([10]; 10 mg/kg intravenous, female): 1.30 ± 0.43%
- Micro-nucleated reticulocytes (%) ([10]; 10 mg/kg intravenous, male): 1.62 ± 0.29%
- Reticulocytes (%) ([10]; 10 mg/kg intravenous, male): 1.95 ± 0.59%

Structure (SMILES): CCOS(C)(=O)=O [Methanesulfonate, ethyl methanesulfonate]
- Micro-nucleated reticulocytes (%) [10, 12]: 0.48 ± 0.16 %
- Reticulocytes (%) [10, 12]: 1.86 ± 0.25%
- Micro-nucleated reticulocytes (%) [10, 13]: 0.68 ± 0.35 %
- Reticulocytes (%) [10, 13]: 1.41 ± 0.32%
- Micro-nucleated reticulocytes (%) [10, 14]: 0.59 ± 0.26 %
- Reticulocytes (%) [10, 14]: 0.45 ± 0.33%
- Micro-nucleated reticulocytes (%) [10, 15]: 0.81 ± 0.48 %
- Reticulocytes (%) [10, 15]: 1.33 ± 0.34%

Structure (SMILES): [Na+].[OH-] [NaOH 0.1M, NaOH]
- IS of the positive substances of reference [1]: 15±3
